Experiment [1] has as its target T1, rat PrRP receptor (GPR10) in RC-4B/C cells (Rattus norvegicus, UniProt Q64121).
T1 construct: host or cells: RC-4B/C rat pituitary cell line
T1 sequence (Q64121 1-370): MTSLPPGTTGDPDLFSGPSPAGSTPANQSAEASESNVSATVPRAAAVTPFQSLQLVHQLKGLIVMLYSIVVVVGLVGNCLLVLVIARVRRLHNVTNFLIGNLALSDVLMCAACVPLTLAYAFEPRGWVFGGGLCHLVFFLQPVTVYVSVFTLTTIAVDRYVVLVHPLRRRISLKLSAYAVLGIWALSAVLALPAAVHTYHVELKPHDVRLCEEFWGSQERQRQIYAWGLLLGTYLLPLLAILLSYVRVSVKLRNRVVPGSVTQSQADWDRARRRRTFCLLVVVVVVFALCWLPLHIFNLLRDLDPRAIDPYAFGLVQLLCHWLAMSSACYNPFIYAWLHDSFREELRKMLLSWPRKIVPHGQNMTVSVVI
As to the kind of experiment: Competitive binding to rat pituitary RC-4B/C cells. The note with it: ^125I-rat PrRP31, RC-4B/C cells.

Experiment [2] has as its system fasted C57BL/6 mice. As to the kind of experiment: Food intake in fasted mice after ICV administration. To be noted: 4 nmol/mouse; for % control: food intake vs saline. The experiment is classed as in vivo. The method in brief: (§1)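 Male C57BL/6 mice, food-deprived 17 h, received saline, PrRP or lipidated analogs either SC at 1-10 mg/kg or ICV into the third ventricle at 4 nmol/mouse.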

For experiment [3], the system named is fasted C57BL/6 mice. As to the kind of experiment: Food intake in fasted mice after SC administration. The experiment is classed as in vivo, mouse. To be noted: for food intake in fasted mice (in words): SC (peripheral) administration; for food intake / % control: SC administration; for % control: food intake vs saline. The method in brief:
as §1

SMILES strings stand for the structures. Where a SMILES comes first, the peptide text is derived from it. [ ]: non-standard residue; d: D form. The star is where a group is joined. Palmitoyl = CCCCCCCCCCCCCCCC(=O)*; Myristoyl = CCCCCCCCCCCCCC(=O)*; Nle = CCCC[C@H](N)C(=O)O; Dap = NC[C@H](N)C(=O)O

For the molecule `CCCCCCCCCCCCCC(=O)NC[C@H](N)C(=O)N[C@@H](CCCNC(=N)N)C(=O)N[C@@H](C)C(=O)N[C@@H](Cc1c[nH]cn1)C(=O)N[C@@H](CCC(N)=O)C(=O)N[C@@H](Cc1c[nH]cn1)C(=O)N[C@@H](CO)C(=O)N[C@@H](CCCC)C(=O)N[C@@H](CCC(=O)O)C(=O)N[C@H](C(=O)N[C@@H](CCCNC(=N)N)C(=O)N[C@H](C(=O)N1CCC[C@H]1C(=O)N[C@@H](CC(=O)O)C(=O)N[C@H](C(=O)N[C@@H](CC(N)=O)C(=O)N1CCC[C@H]1C(=O)N[C@@H](C)C(=O)N[C@@H](Cc1c[nH]c2ccccc12)C(=O)N[C@@H](Cc1ccc(O)cc1)C(=O)N[C@H](C(=O)NCC(=O)N[C@@H](CCCNC(=N)N)C(=O)NCC(=O)N[C@H](C(=O)N[C@@H](CCCNC(=N)N)C(=O)N1CCC[C@H]1C(=O)N[C@H](C(=O)NCC(=O)N[C@@H](CCCNC(=N)N)C(=O)N[C@@H](Cc1ccccc1)C(N)=O)C(C)C)[C@@H](C)CC)[C@@H](C)O)[C@@H](C)CC)[C@@H](C)O)[C@@H](C)O` [Analog 5] (H-[Dap](Myristoyl)RAHQHS[Nle]ETRTPDINPAWYTGRGIRPVGRF-NH2), the “% of PrRP31 binding” value in experiment [1] is 601%. Besides, the “food intake” value is 0.35 g in experiment [2] (45 minutes); 0.96 g in experiment [2] (300 minutes); 0.05 g in experiment [3] (45 minutes, 10 mg/kg); 0.18 g in experiment [3] (300 minutes, 10 mg/kg). Besides, the “% control” value is listed as 62% in experiment [2] (45 minutes); 73% in experiment [2] (300 minutes); 25% in experiment [3] (45 minutes, 10 mg/kg); 21% in experiment [3] (300 minutes, 10 mg/kg). In addition, the “food intake in fasted mice (in words)” value in experiment [3] is “significantly decreased food intake”. In addition, the “dose dependence of the lowering of food intake” value in experiment [3] (SC administration, 1, 2, 5 and 10 mg/kg, FIG. 5 and 6) is recorded as “dose dependent”.

With `CCCCCCCCCCCCCCCC(=O)NC[C@H](N)C(=O)N[C@@H](CCCNC(=N)N)C(=O)N[C@@H](C)C(=O)N[C@@H](Cc1c[nH]cn1)C(=O)N[C@@H](CCC(N)=O)C(=O)N[C@@H](Cc1c[nH]cn1)C(=O)N[C@@H](CO)C(=O)N[C@@H](CCCC)C(=O)N[C@@H](CCC(=O)O)C(=O)N[C@H](C(=O)N[C@@H](CCCNC(=N)N)C(=O)N[C@H](C(=O)N1CCC[C@H]1C(=O)N[C@@H](CC(=O)O)C(=O)N[C@H](C(=O)N[C@@H](CC(N)=O)C(=O)N1CCC[C@H]1C(=O)N[C@@H](C)C(=O)N[C@@H](Cc1c[nH]c2ccccc12)C(=O)N[C@@H](Cc1ccc(O)cc1)C(=O)N[C@H](C(=O)NCC(=O)N[C@@H](CCCNC(=N)N)C(=O)NCC(=O)N[C@H](C(=O)N[C@@H](CCCNC(=N)N)C(=O)N1CCC[C@H]1C(=O)N[C@H](C(=O)NCC(=O)N[C@@H](CCCNC(=N)N)C(=O)N[C@@H](Cc1ccccc1)C(N)=O)C(C)C)[C@@H](C)CC)[C@@H](C)O)[C@@H](C)CC)[C@@H](C)O)[C@@H](C)O` [Analog 6] (H-[Dap](Palmitoyl)RAHQHS[Nle]ETRTPDINPAWYTGRGIRPVGRF-NH2), the “% of PrRP31 binding” value in experiment [1] is listed as 1072%. For the same molecule, the “food intake” value in experiment [2] (45 minutes) was 0.38 g; in experiment [2] (300 minutes), 1.3 g; in experiment [3] (45 minutes, 5 mg/kg), 0 g; in experiment [3] (300 minutes, 5 mg/kg), 0.14 g. In addition, the “% control” value is 71% in experiment [2] (45 minutes); 100% in experiment [2] (300 minutes); 0% in experiment [3] (45 minutes, 5 mg/kg); 14% in experiment [3] (300 minutes, 5 mg/kg). In experiment [3], the “food intake in fasted mice (in words)” value is on record as “significantly decreased food intake”.

These data come from patent publication US9937235B2, “Lipidated peptides as anti-obesity agents” (USTAV ORGANICKE CHEMIE A BIOCHEMIE AKADEMIE VED CR, V.V.I, priority 2012, dated 2018).
